According to US20070281992A1, “COMBINATION OF GYRASE B INHIBITORS AND PROTEIN SYNTHESIS INHIBITORS AND USES THEREOF” (priority 2006, published 2007):
Like-named read-outs stand apart in the source and are kept apart here.

Key:
[1] = system: Staphylococcus aureus 0100 (ATCC 29213); assay: MIC assay, quality control strain S. aureus ATCC 29213; assay type: cell-based; details: ATCC29213, S. aureus ATCC 29213, repeat runs 22FEB06-09MAR06, combinations at 2.5:1, read-out: Minimal Inhibitory Concentration, quality control
Summary of the method: (§1)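 MIC is read as the value from NCCLS-standard broth dilution in Mueller Hinton II medium. Each agent spanned 11 two-fold dilutions, with novobiocin paired to tetracycline or minocycline at a 2.5:1 ratio reflecting serum levels.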

[2] = system: Staphylococcus aureus 0100 (ATCC 29213); details: S. aureus ATCC 29213; accepted quality control range; cited from earlier work
[3] = system: Enterococcus faecalis (ATCC 29212); details: E. faecalis ATCC 29212; accepted quality control range; cited from earlier work
[4] = system: Methicillin-Resistant Staphylococcus aureus Isolates; assay: MIC assay (NCCLS broth dilution), MRSA clinical isolates; assay type: cell-based; details: for MIC: read-out: Minimal Inhibitory Concentration
Summary of the method: as §1

[5] = system: Vancomycin-intermediate Staphylococcus epidermidis Isolates; assay: MIC assay (NCCLS broth dilution), VISE isolates; assay type: cell-based; details: for MIC: read-out: Minimal Inhibitory Concentration
Summary of the method: as §1

[6] = Staphylococcus aureus, 52 MRSA isolates, combinations at 2.5:1, given as NB/partner

CC(=O)NC[C@H]1CN(c2ccc(N3CCOCC3)c(F)c2)C(=O)O1 [LZD, linezolid]
MIC [1]: 4 µg/mL | CLSI QC Range (MIC) [2]: 1 to 4 µg/mL | CLSI QC Range (MIC) [3]: 1 to 4 µg/mL | MIC Range ([4]; 52 MRSA isolates, combinations at 2.5:1, given as NB/partner): 2 to 4 µg/mL | MIC ([4]; Staphylococcus aureus, MRSA isolate 757, 24FEB06): 4 µg/mL | MIC ([4]; Staphylococcus aureus, MRSA isolate 758, 03MAR06): 4 µg/mL | MIC ([4]; Staphylococcus aureus, MRSA isolate 758, 24FEB06): 4 µg/mL | MIC ([4]; Staphylococcus aureus, MRSA isolate 760, 03MAR06): 2 µg/mL | MIC ([4]; Staphylococcus aureus, MRSA isolate 760, 24FEB06): 4 µg/mL | MIC ([4]; Staphylococcus aureus, MRSA isolate 763, 22FEB06): 4 µg/mL | MIC ([4]; Staphylococcus aureus, MRSA isolate 765, 22FEB06): 4 µg/mL | MIC ([4]; Staphylococcus aureus, MRSA isolate 766, 22FEB06): 4 µg/mL | MIC ([4]; Staphylococcus aureus, MRSA isolate 767, 22FEB06): 2 µg/mL | MIC ([4]; Staphylococcus aureus, MRSA isolate 768, 22FEB06): 2 µg/mL | MIC ([4]; Staphylococcus aureus, MRSA isolate 769, 22FEB06): 2 µg/mL | MIC ([4]; Staphylococcus aureus, MRSA isolate 770, 22FEB06): 2 µg/mL | MIC ([4]; Staphylococcus aureus, MRSA isolate 771, 22FEB06): 2 µg/mL | MIC ([4]; Staphylococcus aureus, MRSA isolate 772, 22FEB06): 2 µg/mL | MIC ([4]; Staphylococcus aureus, MRSA isolate 773, 24FEB06): 2 µg/mL | MIC ([4]; Staphylococcus aureus, MRSA isolate 774, 24FEB06): 2 µg/mL | MIC ([4]; Staphylococcus aureus, MRSA isolate 775, 24FEB06): 4 µg/mL | MIC ([4]; Staphylococcus aureus, MRSA isolate 776, 24FEB06): 2 µg/mL | MIC ([4]; Staphylococcus aureus, MRSA isolate 777, 24FEB06): 2 µg/mL | MIC ([4]; Staphylococcus aureus, MRSA isolate 778, 24FEB06): 2 µg/mL | MIC ([4]; Staphylococcus aureus, MRSA isolate 886, 24FEB06): 2 µg/mL | MIC ([4]; Staphylococcus aureus, MRSA isolate 887, 24FEB06): 4 µg/mL | MIC ([4]; Staphylococcus aureus, MRSA isolate 888, 24FEB06): 4 µg/mL | MIC ([4]; Staphylococcus aureus, MRSA isolate 889, 24FEB06): 4 µg/mL | MIC ([4]; Staphylococcus aureus, MRSA isolate 1004, 24FEB06): 4 µg/mL | MIC ([4]; Staphylococcus aureus, MRSA isolate 1010, 22FEB06): 2 µg/mL | MIC ([4]; Staphylococcus aureus, MRSA isolate 1012, 22FEB06): 2 µg/mL | MIC ([4]; Staphylococcus aureus, MRSA isolate 1013, 22FEB06): 2 µg/mL | MIC ([4]; Staphylococcus aureus, MRSA isolate 1014, 22FEB06): 2 µg/mL | MIC ([4]; Staphylococcus aureus, MRSA isolate 1015, 22FEB06): 2 µg/mL | MIC ([4]; Staphylococcus aureus, MRSA isolate 1016, 22FEB06): 2 µg/mL | MIC ([4]; Staphylococcus aureus, MRSA isolate 1017, 22FEB06): 2 µg/mL | MIC ([4]; Staphylococcus aureus, MRSA isolate 1021, 22FEB06): 2 µg/mL | MIC ([4]; Staphylococcus aureus, MRSA isolate 1022, 22FEB06): 2 µg/mL | MIC ([4]; Staphylococcus aureus, MRSA isolate 1023, 22FEB06): 2 µg/mL | MIC ([4]; Staphylococcus aureus, MRSA isolate 1024, 22FEB06): 2 µg/mL | MIC ([4]; Staphylococcus aureus, MRSA isolate 1025, 22FEB06): 2 µg/mL | MIC ([4]; Staphylococcus aureus, MRSA isolate 1135, 22FEB06): 2 µg/mL | MIC ([4]; Staphylococcus aureus, MRSA isolate 1136, 22FEB06): 4 µg/mL | MIC ([4]; Staphylococcus aureus, MRSA isolate 1137, 22FEB06): 2 µg/mL | MIC ([4]; Staphylococcus aureus, MRSA isolate 1138, 22FEB06): 4 µg/mL | MIC ([4]; Staphylococcus aureus, MRSA isolate 1222, 03MAR06): 2 µg/mL | MIC ([4]; Staphylococcus aureus, MRSA isolate 1222, 24FEB06): 2 µg/mL | MIC ([4]; Staphylococcus aureus, MRSA isolate 1653, 03MAR06): 2 µg/mL | MIC ([4]; Staphylococcus aureus, MRSA isolate 1658, 03MAR06): 2 µg/mL | MIC ([4]; Staphylococcus aureus, MRSA isolate 1659, 03MAR06): 2 µg/mL | MIC ([4]; Staphylococcus aureus, MRSA isolate 1661, 03MAR06): 4 µg/mL | MIC ([4]; Staphylococcus aureus, MRSA isolate 1729, 03MAR06): 2 µg/mL | MIC ([4]; Staphylococcus aureus, MRSA isolate 1730, 24FEB06): 4 µg/mL | MIC ([4]; Staphylococcus aureus, MRSA isolate 2009, 24FEB06): 2 µg/mL | MIC ([4]; Staphylococcus aureus, MRSA isolate 2010, 24FEB06): 2 µg/mL | MIC ([4]; Staphylococcus aureus, MRSA isolate 2011, 24FEB06): 4 µg/mL | MIC50 [4, 6]: 2 µg/mL | MIC90 [4, 6]: 4 µg/mL | MIC Range ([5]; 4 VISE isolates, combinations at 2.5:1): 1 to 2 µg/mL | MIC ([5]; Staphylococcus epidermidis, VISE isolate 2020, 09MAR06): 2 µg/mL | MIC ([5]; Staphylococcus epidermidis, VISE isolate 2021, 09MAR06): 1 µg/mL | MIC ([5]; Staphylococcus epidermidis, VISE isolate 2022, 03MAR06): 2 µg/mL | MIC ([5]; Staphylococcus epidermidis, VISE isolate 2023, 03MAR06): 2 µg/mL | MIC50 ([5]; Staphylococcus epidermidis, 4 VISE isolates, combinations at 2.5:1): 2 µg/mL
